From patent publication US20240043470A1, “MACROCYCLIC COMPOUNDS AS PROTEASOME INHIBITORS” (CORNELL UNIVERSITY, priority 2017, published 2024)

Legend:
β5i of hu i-20S = β5i of hu i-20S (Homo sapiens (Human), UniProt P20618+P28062); test: IC50 determination against β5i of human immunoproteasome (Ac-ANW-AMC hydrolysis); format: biochemical; conditions: for IC50: β5i, 0.4 nM i-20S, 15 μM Ac-ANW-AMC;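 for all read-outs here: enzyme activity taken as the initial reaction velocity per well, with SDS added to activate the proteasome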
β5c of hu c-20S = β5c of hu c-20S (Homo sapiens (Human), UniProt P20618+P28074); test: IC50 determination against β5c of human constitutive proteasome (suc-LLVY-AMC hydrolysis); format: biochemical; conditions: 0.2 nM c-20S, 25 μM suc-LLVY-AMC;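 note: IC50 obtained by fitting initial reaction velocities to a dose-dependent inhibition model, with SDS present as proteasome activator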

Compound | IC50 (β5i of hu i-20S) [µM] | IC50 (β5c of hu c-20S) [µM] | % @ […], hu i-20S (β5i of hu i-20S; compound at […]) [% @ 33.3 μM]
O=C1N[C@H](CO)CCCCOc2cccc(c2)C[C@H](N2CCCC2=O)C(=O)N[C@H]1CCc1ccccc1 [Compound 3-06, (7S,10S,13S)-7-(Hydroxymethyl)-13-(2-oxopyrrolidin-1-yl)-10-phenethyl-2-oxa-8,11-diaza-1(1,3)-benzenacyclotetradecaphane-9,12-dione] | 68 |  | 
O=C(N[C@H]1Cc2cccc(c2)Oc2cccc(c2)C[C@@H](C(=O)NCC(F)(F)F)NC(=O)[C@H](CCc2ccccc2)NC1=O)C1CC1 [Compound 1-54, (5S,8S,11S)-11-(Cyclopropanecarboxamido)-7,10-dioxo-8-phenethyl-N-(2,2,2-trifluoroethyl)-2-oxa-6,9-diaza-1,3(1,3)-dibenzenacyclododecaphane-5-carboxamide] | > 100 | > 100 | 
CN(Cc1ccccc1)C(=O)[C@@H]1CCCCOc2cccc(c2)C[C@H](N2CCCC2=O)C(=O)N[C@@H](CCc2ccc(F)cc2)C(=O)N1 [Compound 3-44] | > 100 | 5.15 | 
O=C1CCc2cccc(c2)Oc2cccc(c2)C[C@@H](C(=O)NC2CCCC2)NC(=O)[C@H](CCN2CCOCC2)N1 [Compound 1-89, (5S,8S)—N-Cyclopentyl-8-(2-morpholinoethyl)-7,10-dioxo-2-oxa-6,9-diaza-1,3(1,3)-dibenzenacyclododecaphane-5-carboxamide] | > 100 |  | 
O=C1CCc2cccc(c2)OCCCC[C@@H](C(=O)NCc2ccccc2F)NC(=O)[C@H](CC(=O)N2CCCC2C2CC2)N1 (single isomer, unassigned) [Compound 3-46-A] | 0.068 | 0.0723 | 
CN(C)[C@H]1Cc2cccc(c2)OCCCC[C@@H](C(=O)NC2CCCC2)NC(=O)[C@H](CCc2ccc(F)cc2)NC1=O [Compound 3-36] | > 100 | 9.5 | 
O=C1CCc2cccc(c2)Oc2ccc(cc2)C[C@@H](C(=O)NCc2ccccc2F)NC(=O)[C@H](CC(=O)N2CCC[C@@H]2c2ccccc2)N1 [Compound 2-02-B, (5S,8S)—N-(2-Fluorobenzyl)-7,10-dioxo-8-(2-oxo-2-((R)-2-phenylpyrrolidin-1-yl)ethyl)-2-oxa-6,9-diaza-1(1,3),3(1,4)-dibenzenacyclododecaphane-5-carboxamide] | 6.75 | > 100 | 
O=C(NCc1ncco1)[C@@H]1CCCCOc2cccc(c2)C[C@H](N2CCCC2=O)C(=O)N[C@@H](CCc2ccccc2)C(=O)N1 [Compound 3-16] | 82 | 31.9 | 
CN1C(=O)[C@H](CCN2CCOCC2)NC(=O)[C@@H](N2CCCC2=O)Cc2cccc(c2)Oc2cccc(c2)C[C@H]1C(=O)NCC(F)(F)F [Compound 1-86, (5S,8S,11S)-6-Methyl-8-(2-morpholinoethyl)-7,10-dioxo-11-(2-oxopyrrolidin-1-yl)-N-(2,2,2-trifluoroethyl)-2-oxa-6,9-diaza-1,3(1,3)-dibenzenacyclododecaphane-5-carboxamide] | 61 |  | 
O=C1N[C@@H](CC(=O)N2CCCC2)C(=O)N[C@H](C(=O)NCc2cccc3ccccc23)CCCCCCCCCC1Cc1ccccc1 (stereo in doubt) [Compound 4-04, (2S,5S,15S)-15-Benzyl-N-(naphthalen-1-ylmethyl)-3,16-dioxo-2-(2-oxo-2-(pyrrolidin-1-yl)ethyl)-1,4-diazacyclohexadecane-5-carboxamide] | 61.3 |  | 
O=C(NC1CCCC1)[C@@H]1Cc2cccc(c2)Oc2cccc(c2)C[C@H](N2CCCS2(=O)=O)C(=O)N[C@@H](CCN2CCOCC2)C(=O)N1 [Compound 1-88, (5S,8S,11S)—N-Cyclopentyl-11-(1,1-dioxidoisothiazolidin-2-yl)-8-(2-morpholinoethyl)-7,10-dioxo-2-oxa-6,9-diaza-1,3(1,3)-dibenzenacyclododecaphane-5-carboxamide] |  |  | 15
